Measured values: PubChem BioAssay (NCI)
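96-well plates; 48 h exposure; 5 concentrations. Endpoints by linear interpolation between flanking doses. Not reached: highest tested concentration assigned. GI50 is the concentration that inhibits growth by half. TGI: total growth inhibition.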

Assays:
Test in all cases: NCI-60 cell line screen, 48 h
786-0 renal = tested on: 786-0 renal
A498 renal = tested on: A498 renal
A549 NSCLC = tested on: A549 NSCLC
ACHN renal = tested on: ACHN renal
BT-549 breast = tested on: BT-549 breast
CAKI-1 renal = tested on: CAKI-1 renal
CCRF-CEM leukemia = tested on: CCRF-CEM leukemia
COLO 205 colon = tested on: COLO 205 colon
DU-145 prostate = tested on: DU-145 prostate
EKVX NSCLC = tested on: EKVX NSCLC
HCC-2998 colon = tested on: HCC-2998 colon
HCT-116 colon = tested on: HCT-116 colon
HCT-15 colon = tested on: HCT-15 colon
HL-60(TB) leukemia = tested on: HL-60(TB) leukemia
HOP-62 NSCLC = tested on: HOP-62 NSCLC
HOP-92 NSCLC = tested on: HOP-92 NSCLC
HS 578T breast = tested on: HS 578T breast
HT29 colon = tested on: HT29 colon
IGROV1 ovarian = tested on: IGROV1 ovarian
K-562 leukemia = tested on: K-562 leukemia
KM12 colon = tested on: KM12 colon
LOX IMVI melanoma = tested on: LOX IMVI melanoma
M14 melanoma = tested on: M14 melanoma
MALME-3M melanoma = tested on: MALME-3M melanoma
MCF7 breast = tested on: MCF7 breast
MDA-MB-231 breast = tested on: MDA-MB-231 breast
MDA-MB-435 = tested on: MDA-MB-435
MOLT-4 leukemia = tested on: MOLT-4 leukemia
NCI-H226 lung = tested on: NCI-H226 lung
NCI-H23 lung = tested on: NCI-H23 lung
NCI-H460 lung = tested on: NCI-H460 lung
NCI-H522 lung = tested on: NCI-H522 lung
NCI/ADR-RES ovarian = tested on: NCI/ADR-RES ovarian
OVCAR-3 ovarian = tested on: OVCAR-3 ovarian
OVCAR-4 ovarian = tested on: OVCAR-4 ovarian
OVCAR-5 ovarian = tested on: OVCAR-5 ovarian
OVCAR-8 ovarian = tested on: OVCAR-8 ovarian
PC-3 prostate = tested on: PC-3 prostate
RPMI-8226 leukemia = tested on: RPMI-8226 leukemia
RXF 393 renal = tested on: RXF 393 renal
SF-268 CNS = tested on: SF-268 CNS
SF-295 CNS = tested on: SF-295 CNS
SF-539 CNS = tested on: SF-539 CNS
SK-MEL-2 melanoma = tested on: SK-MEL-2 melanoma
SK-MEL-28 melanoma = tested on: SK-MEL-28 melanoma
SK-MEL-5 melanoma = tested on: SK-MEL-5 melanoma
SK-OV-3 ovarian = tested on: SK-OV-3 ovarian
SN12C renal = tested on: SN12C renal
SNB-19 CNS = tested on: SNB-19 CNS
SNB-75 CNS = tested on: SNB-75 CNS
SR leukemia = tested on: SR leukemia
SW-620 colon = tested on: SW-620 colon
T-47D breast = tested on: T-47D breast
TK-10 renal = tested on: TK-10 renal
U251 CNS = tested on: U251 CNS
UACC-257 melanoma = tested on: UACC-257 melanoma
UACC-62 melanoma = tested on: UACC-62 melanoma
UO-31 renal = tested on: UO-31 renal

C=C1C(=O)O[C@H]2[C@H]1CC/C(COC(=O)C(=O)c1c[nH]c3ccc(Cl)cc13)=C\CC[C@@]1(C)O[C@@H]21
GI50 (786-0 renal): 1530 nM
TGI (786-0 renal): 2930 nM
GI50 (A498 renal): 2750 nM
TGI (A498 renal): 5540 nM
GI50 (A549 NSCLC): 2520 nM
TGI (A549 NSCLC): 6030 nM
GI50 (ACHN renal): 1320 nM
TGI (ACHN renal): 2700 nM
GI50 (BT-549 breast): 1380 nM
TGI (BT-549 breast): 3190 nM
GI50 (CAKI-1 renal): 2810 nM
TGI (CAKI-1 renal): 10900 nM
GI50 (CCRF-CEM leukemia): 375 nM
TGI (CCRF-CEM leukemia): 10100 nM
GI50 (COLO 205 colon): 2120 nM
TGI (COLO 205 colon): 4580 nM
GI50 (DU-145 prostate): 1900 nM
TGI (DU-145 prostate): 4130 nM
GI50 (EKVX NSCLC): 2060 nM
TGI (EKVX NSCLC): 5030 nM
GI50 (HCC-2998 colon): 1800 nM
TGI (HCC-2998 colon): 3360 nM
GI50 (HCT-116 colon): 1650 nM
TGI (HCT-116 colon): 3230 nM
GI50 (HCT-15 colon): 382 nM
TGI (HCT-15 colon): 1630 nM
GI50 (HL-60(TB) leukemia): 1910 nM
TGI (HL-60(TB) leukemia): 5090 nM
GI50 (HOP-62 NSCLC): 1630 nM
TGI (HOP-62 NSCLC): 3660 nM
GI50 (HOP-92 NSCLC): 1860 nM
TGI (HOP-92 NSCLC): 3420 nM
GI50 (HS 578T breast): 3520 nM
TGI (HS 578T breast): 29400 nM
GI50 (HT29 colon): 781 nM
TGI (HT29 colon): 3010 nM
GI50 (IGROV1 ovarian): 1630 nM
TGI (IGROV1 ovarian): 3320 nM
GI50 (K-562 leukemia): 1580 nM
TGI (K-562 leukemia): 6180 nM
GI50 (KM12 colon): 3210 nM
TGI (KM12 colon): 11600 nM
GI50 (LOX IMVI melanoma): 183 nM
TGI (LOX IMVI melanoma): 396 nM
GI50 (M14 melanoma): 1590 nM
TGI (M14 melanoma): 3620 nM
GI50 (MALME-3M melanoma): 1740 nM
TGI (MALME-3M melanoma): 3470 nM
GI50 (MCF7 breast): 779 nM
TGI (MCF7 breast): 4270 nM
GI50 (MDA-MB-231 breast): 1840 nM
TGI (MDA-MB-231 breast): 4030 nM
GI50 (MDA-MB-435): 1800 nM
TGI (MDA-MB-435): 4230 nM
GI50 (MOLT-4 leukemia): 778 nM
TGI (MOLT-4 leukemia): 5470 nM
GI50 (NCI-H226 lung): 1740 nM
TGI (NCI-H226 lung): 3310 nM
GI50 (NCI-H23 lung): 1650 nM
TGI (NCI-H23 lung): 3310 nM
GI50 (NCI-H460 lung): 2450 nM
TGI (NCI-H460 lung): 5930 nM
GI50 (NCI-H522 lung): 1530 nM
TGI (NCI-H522 lung): 3240 nM
GI50 (NCI/ADR-RES ovarian): 1940 nM
TGI (NCI/ADR-RES ovarian): 4940 nM
GI50 (OVCAR-3 ovarian): 520 nM
TGI (OVCAR-3 ovarian): 2010 nM
GI50 (OVCAR-4 ovarian): 2340 nM
TGI (OVCAR-4 ovarian): 7030 nM
GI50 (OVCAR-5 ovarian): 2100 nM
TGI (OVCAR-5 ovarian): 5170 nM
GI50 (OVCAR-8 ovarian): 2320 nM
TGI (OVCAR-8 ovarian): 6820 nM
GI50 (PC-3 prostate): 1760 nM
TGI (PC-3 prostate): 3570 nM
GI50 (RPMI-8226 leukemia): 422 nM
TGI (RPMI-8226 leukemia): 3290 nM
GI50 (RXF 393 renal): 1400 nM
TGI (RXF 393 renal): 2790 nM
GI50 (SF-268 CNS): 1730 nM
TGI (SF-268 CNS): 3970 nM
GI50 (SF-295 CNS): 5770 nM
TGI (SF-295 CNS): 18600 nM
GI50 (SF-539 CNS): 1740 nM
TGI (SF-539 CNS): 3320 nM
GI50 (SK-MEL-2 melanoma): 1940 nM
TGI (SK-MEL-2 melanoma): 4230 nM
GI50 (SK-MEL-28 melanoma): 1880 nM
TGI (SK-MEL-28 melanoma): 3920 nM
GI50 (SK-MEL-5 melanoma): 1860 nM
TGI (SK-MEL-5 melanoma): 3410 nM
GI50 (SK-OV-3 ovarian): 11600 nM
TGI (SK-OV-3 ovarian): 24100 nM
GI50 (SN12C renal): 1840 nM
TGI (SN12C renal): 4170 nM
GI50 (SNB-19 CNS): 3220 nM
TGI (SNB-19 CNS): 10800 nM
GI50 (SNB-75 CNS): 1480 nM
TGI (SNB-75 CNS): 3870 nM
GI50 (SR leukemia): 342 nM
TGI (SR leukemia): 12200 nM
GI50 (SW-620 colon): 1670 nM
TGI (SW-620 colon): 10300 nM
GI50 (T-47D breast): 1620 nM
TGI (T-47D breast): 3770 nM
GI50 (TK-10 renal): 1730 nM
TGI (TK-10 renal): 3200 nM
GI50 (U251 CNS): 1900 nM
TGI (U251 CNS): 3450 nM
GI50 (UACC-257 melanoma): 2000 nM
TGI (UACC-257 melanoma): 4130 nM
GI50 (UACC-62 melanoma): 1280 nM
TGI (UACC-62 melanoma): 3540 nM
GI50 (UO-31 renal): 1220 nM
TGI (UO-31 renal): 2530 nM
